Laboratory results reported in the NIST ThermoML archive (doi:10.1016/j.jct.2012.06.031).
Numbers after ± are expanded uncertainties.

How the values were obtained:
[1] = 101 kPa, Liquid; for viscosity: Concentric cylinders viscometry; for mass density: Vibrating tube method
[2] = refractive index (Na D-line) (dimensionless); conditions: 101.33 kPa, Liquid, Standard Abbe refractometry
[3] = xn = mol fraction of the nth substance listed; conditions: 101 kPa, Liquid; for viscosity: Concentric cylinders viscometry; for mass density: Vibrating tube method
[4] = refractive index (Na D-line) (dimensionless); xn = mol fraction of the nth substance listed; conditions: 101 kPa, Liquid, Standard Abbe refractometry

CC(O)CO (stereo unspecified) [1,2-propanediol]
Conditions | mass density, [1] [kg/m3] | refractive index, [2] | viscosity, [1] [mPa·s]
288.15 K | 1040.08 ± 0.14 | 1.43411 ± 0.00033 | 81.21 ± 0.6
293.15 K | 1036.46 ± 0.14 | 1.43247 ± 0.00033 | 58.75 ± 0.25
298.15 K | 1032.8 ± 0.14 | 1.43081 ± 0.00033 | 43.44 ± 0.2
303.15 K | 1029.09 ± 0.14 | 1.42915 ± 0.00033 | 32.75 ± 0.15
308.15 K | 1025.34 ± 0.13 | 1.42751 ± 0.00033 | 25.16 ± 0.12
313.15 K | 1021.55 ± 0.13 | 1.42581 ± 0.00033 | 19.65 ± 0.092
318.15 K | 1017.73 ± 0.13 | 1.42407 ± 0.00033 | 15.58 ± 0.071
323.15 K | 1013.86 ± 0.13 | 1.4223 ± 0.00033 | 12.55 ± 0.058

OCC(O)CO [glycerol]
Conditions | mass density, [1] [kg/m3] | refractive index, [2] | viscosity, [1] [mPa·s]
288.15 K | 1264.08 ± 0.22 | 1.47552 ± 0.00033 | 2298.3 ± 120
293.15 K | 1261.03 ± 0.22 | 1.47427 ± 0.00033 | 1425.1 ± 65
298.15 K | 1257.94 ± 0.22 | 1.47301 ± 0.00033 | 911.98 ± 36
303.15 K | 1254.83 ± 0.22 | 1.47175 ± 0.00033 | 600.83 ± 20
308.15 K | 1251.68 ± 0.21 | 1.47048 ± 0.00033 | 406.93 ± 12
313.15 K | 1248.48 ± 0.21 | 1.4692 ± 0.00033 | 282.61 ± 6.7
318.15 K | 1245.24 ± 0.21 | 1.46791 ± 0.00033 | 201.03 ± 3.9
323.15 K | 1242.08 ± 0.21 | 1.46674 ± 0.00033 | 147.15 ± 2.2

OCC(O)CO [glycerol] + c1ccncc1
x2 = 0
Conditions | mass density, [3] [kg/m3] | refractive index, [4] | viscosity, [3] [mPa·s]
288.15 K | 1264.08 ± 0.22 | 1.47552 ± 0.00033 | 2298.3 ± 120
293.15 K | 1261.03 ± 0.22 | 1.47427 ± 0.00033 | 1425.1 ± 65
298.15 K | 1257.94 ± 0.22 | 1.47301 ± 0.00033 | 911.98 ± 36
303.15 K | 1254.83 ± 0.22 | 1.47175 ± 0.00033 | 600.83 ± 20
308.15 K | 1251.68 ± 0.21 | 1.47048 ± 0.00033 | 406.93 ± 12
313.15 K | 1248.48 ± 0.21 | 1.4692 ± 0.00033 | 282.61 ± 6.7
318.15 K | 1245.24 ± 0.21 | 1.46791 ± 0.00033 | 201.03 ± 3.9
323.15 K | 1242.08 ± 0.21 | 1.46674 ± 0.00033 | 147.15 ± 2.2

OCCCO [propan-1,3-diol]
Conditions | mass density, [1] [kg/m3] | refractive index, [2] | viscosity, [1] [mPa·s]
288.15 K | 1056.12 ± 0.95 | 1.44089 ± 0.00051 | 66.53 ± 0.72
293.15 K | 1053.02 ± 0.95 | 1.43947 ± 0.00051 | 51.91 ± 0.53
298.15 K | 1049.91 ± 0.94 | 1.43805 ± 0.00051 | 41.04 ± 0.44
303.15 K | 1046.79 ± 0.93 | 1.43665 ± 0.00051 | 32.84 ± 0.35
308.15 K | 1043.64 ± 0.93 | 1.43526 ± 0.00051 | 26.58 ± 0.28
313.15 K | 1040.49 ± 0.92 | 1.43387 ± 0.00051 | 21.74 ± 0.23
318.15 K | 1037.31 ± 0.91 | 1.43244 ± 0.00051 | 17.95 ± 0.19
323.15 K | 1034.12 ± 0.91 | 1.43099 ± 0.00051 | 14.96 ± 0.16

CCCO [propan-1-ol]
Conditions | mass density, [1] [kg/m3] | refractive index, [2] | viscosity, [1] [mPa·s]
288.15 K | 807.947 ± 0.15 | 1.3878 ± 0.00031 | 2.514 ± 0.013
293.15 K | 803.963 ± 0.15 | 1.38576 ± 0.00031 | 2.208 ± 0.012
298.15 K | 799.953 ± 0.15 | 1.38369 ± 0.00031 | 1.95 ± 0.011
303.15 K | 795.915 ± 0.15 | 1.38162 ± 0.00031 | 1.727 ± 0.011
308.15 K | 791.84 ± 0.15 | 1.37918 ± 0.00031 | 1.542 ± 0.01
313.15 K | 787.721 ± 0.15 | 1.37695 ± 0.00031 | 1.378 ± 0.0097
318.15 K | 783.553 ± 0.15 | 1.37469 ± 0.00031 | 1.236 ± 0.0094
323.15 K | 779.334 ± 0.15 | 1.37231 ± 0.00031 | 1.124 ± 0.0091

CCCO [propan-1-ol] + c1ccncc1
x2 = 0
Conditions | mass density, [3] [kg/m3] | refractive index, [4] | viscosity, [3] [mPa·s]
288.15 K | 807.947 ± 0.15 | 1.3878 ± 0.00031 | 2.514 ± 0.013
293.15 K | 803.963 ± 0.15 | 1.38576 ± 0.00031 | 2.208 ± 0.012
298.15 K | 799.953 ± 0.15 | 1.38369 ± 0.00031 | 1.95 ± 0.011
303.15 K | 795.915 ± 0.15 | 1.38162 ± 0.00031 | 1.727 ± 0.011
308.15 K | 791.84 ± 0.15 | 1.37918 ± 0.00031 | 1.542 ± 0.01
313.15 K | 787.721 ± 0.15 | 1.37695 ± 0.00031 | 1.378 ± 0.0097
318.15 K | 783.553 ± 0.15 | 1.37469 ± 0.00031 | 1.236 ± 0.0094
323.15 K | 779.334 ± 0.15 | 1.37231 ± 0.00031 | 1.124 ± 0.0091

c1ccncc1 [pyridine]
Conditions | mass density, [1] [kg/m3] | refractive index, [2] | viscosity, [1] [mPa·s]
288.15 K | 988.061 ± 0.12 | 1.51184 ± 0.00031 | 1.03 ± 0.0089
293.15 K | 983.038 ± 0.12 | 1.509 ± 0.00031 | 0.9588 ± 0.0087
298.15 K | 978.006 ± 0.12 | 1.50616 ± 0.00031 | 0.8943 ± 0.0086
303.15 K | 972.967 ± 0.12 | 1.50331 ± 0.00031 | 0.8355 ± 0.0085
308.15 K | 967.913 ± 0.12 | 1.50048 ± 0.00031 | 0.7837 ± 0.0084
313.15 K | 962.849 ± 0.12 | 1.49769 ± 0.00031 | 0.7354 ± 0.0083
318.15 K | 957.769 ± 0.12 | 1.49493 ± 0.00031 | 0.6912 ± 0.0082
323.15 K | 952.673 ± 0.12 | 1.49219 ± 0.00031 | 0.6507 ± 0.0081

c1ccncc1 [pyridine] + CC(O)CO
x1 = 1
Conditions | mass density, [3] [kg/m3] | refractive index, [4] | viscosity, [3] [mPa·s]
288.15 K | 988.061 ± 0.12 | 1.51184 ± 0.00031 | 1.03 ± 0.0089
293.15 K | 983.038 ± 0.12 | 1.509 ± 0.00031 | 0.9588 ± 0.0087
298.15 K | 978.006 ± 0.12 | 1.50616 ± 0.00031 | 0.8943 ± 0.0086
303.15 K | 972.967 ± 0.12 | 1.50331 ± 0.00031 | 0.8355 ± 0.0085
308.15 K | 967.913 ± 0.12 | 1.50048 ± 0.00031 | 0.7837 ± 0.0084
313.15 K | 962.849 ± 0.12 | 1.49769 ± 0.00031 | 0.7354 ± 0.0083
318.15 K | 957.769 ± 0.12 | 1.49493 ± 0.00031 | 0.6912 ± 0.0082
323.15 K | 952.673 ± 0.12 | 1.49219 ± 0.00031 | 0.6507 ± 0.0081

c1ccncc1 [pyridine] + OCCCO
x1 = 1
Conditions | mass density, [3] [kg/m3] | refractive index, [4] | viscosity, [3] [mPa·s]
288.15 K | 988.061 ± 0.12 | 1.51184 ± 0.00031 | 1.03 ± 0.0089
293.15 K | 983.038 ± 0.12 | 1.509 ± 0.00031 | 0.9588 ± 0.0087
298.15 K | 978.006 ± 0.12 | 1.50616 ± 0.00031 | 0.8943 ± 0.0086
303.15 K | 972.967 ± 0.12 | 1.50331 ± 0.00031 | 0.8355 ± 0.0085
308.15 K | 967.913 ± 0.12 | 1.50048 ± 0.00031 | 0.7837 ± 0.0084
313.15 K | 962.849 ± 0.12 | 1.49769 ± 0.00031 | 0.7354 ± 0.0083
318.15 K | 957.769 ± 0.12 | 1.49493 ± 0.00031 | 0.6912 ± 0.0082
323.15 K | 952.673 ± 0.12 | 1.49219 ± 0.00031 | 0.6507 ± 0.0081
